Laboratory results as given in US20230241226A1, “COMPOUNDS FOR TARGETED DEGRADATION OF CARRIER PROTEINS AND USES THEREOF” (CeMM - Forschungszentrum für Molekulare Medizin GmbH, priority 2019, published 2023).

Columns and labels:
[1] = target: T1, Strep/HA SLC9A1 (Homo sapiens, UniProt P19634); experiment: Selectivity across SLC9 family: degradation of exogenous Strep/HA SLC9A1; type: cell-based; conditions: HAP1; 250 or 750 nM; 16 hours
T1 construct: expressed in transfected cells; host or cells: HAP1 (lentiviral, pRRL Strep-HA; cDNA synthesized by Genescript)
T1 sequence (P19634 whole entry): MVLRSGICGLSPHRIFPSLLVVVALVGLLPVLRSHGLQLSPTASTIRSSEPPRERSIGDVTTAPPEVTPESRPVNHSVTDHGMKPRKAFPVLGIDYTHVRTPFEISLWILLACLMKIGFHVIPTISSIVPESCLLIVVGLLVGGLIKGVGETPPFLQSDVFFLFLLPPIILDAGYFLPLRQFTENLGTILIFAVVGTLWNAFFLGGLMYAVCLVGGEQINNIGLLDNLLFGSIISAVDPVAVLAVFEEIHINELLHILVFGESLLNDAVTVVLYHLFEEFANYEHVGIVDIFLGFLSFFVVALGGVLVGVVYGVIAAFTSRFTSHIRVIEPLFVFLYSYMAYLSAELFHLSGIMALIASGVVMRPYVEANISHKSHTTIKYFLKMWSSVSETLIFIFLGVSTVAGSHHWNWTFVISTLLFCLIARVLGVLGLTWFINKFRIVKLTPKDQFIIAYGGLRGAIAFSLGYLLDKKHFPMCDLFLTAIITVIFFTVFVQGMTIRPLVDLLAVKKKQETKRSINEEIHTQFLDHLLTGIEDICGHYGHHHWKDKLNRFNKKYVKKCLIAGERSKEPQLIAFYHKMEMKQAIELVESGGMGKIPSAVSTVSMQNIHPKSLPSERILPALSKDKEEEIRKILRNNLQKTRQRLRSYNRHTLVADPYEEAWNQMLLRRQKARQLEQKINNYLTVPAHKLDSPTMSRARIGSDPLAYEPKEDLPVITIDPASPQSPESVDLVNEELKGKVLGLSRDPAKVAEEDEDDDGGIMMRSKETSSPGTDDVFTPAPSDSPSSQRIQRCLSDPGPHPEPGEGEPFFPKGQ
Method: (E) Selectivity of d9A1-2 was tested across HAP1 cell lines expressing Strep/HASLC9A1, 9A4, 9A5, 9A8, 9A2, 9B2, 9A6, 9A9, and 9A3. Cells were treated with varying concentrations of d9A1-2 for 16 hours, after which degradation of the exogenous SLCs was monitored.
SLC1A5, SLC2A1, SLC2A3, SLC16A1, SLC38A1, SLC38A2 were obtained as gateway-compatible pENTR/pDONR vectors from the Harvard PlasmID Repository. SLC39A7 was obtained from Dharmacon, GE Healthcare. The following vectors were synthesized by Genescript: SLC4A4, SLC7A3, SLC38A9, SLC25A1, SLC9A1, SLC9A2, SLC9A3, SLC9A4, SLC9A5, SLC9A6, SLC9A7, SLC9A8, and SLC9B2. SLC30A9, SLC33A1, SLC35B2, SLC25A26, and MTCH2 were a gift from the RESOLUTE consortium. cDNAs were transferred into gateway-compatible lentiviral expression vectors: pLX305 dTAG vectors (Addgene #91797/8) or pRRL Strep-HA (described previously43, EF1a promotor driven expression) using LR recombination (ThermoFisher Scientific). […]
For immunoblotting, whole cell extracts were prepared using RIPA lysis buffer (25 mM Tris/HCl pH 7.6, 150 mM NaCl, 1% NP-40, 1% sodium deoxycholate, 0.1% SDS, EDTA-free protease inhibitor (Roche) and phosphatase inhibitors 2+3 (Sigma- Aldrich)). […] Protein extracts were quantified and normalized using the BCA assay (Thermo Scientific). […]

[2] = test system: dTAG-HA SLCs; experiment: dTAG-driven SLC degradation, statements across SLCs (temporal control, chemical rescue); type: cell-based, human; conditions: dTAG-tagged SLCs; FIGS. 5E and F
Method: (D)Chemical “rescue” of dTAG-driven degradation of SLCs. HAP1 cell lines expressing dTAG-HA SLC1A5 or dTAG-HA SLC38A9 were treated with 0.5 µM dTAG7 for 12 or 18 hours, respectively. These cells were also treated with chloroquine (CQ, 50 µM), bortezomib (bort., 1 µM), MG-132 (MG, 1 µM), MLN4924 (MLN, 1 µM), pomalidomide (poma., 10 µM), or bafilomycin A1 (bafi., 2.5 µM). SLC degradation was rescued by inhibiting CRL activity or the proteasome, but not by inhibiting the lysosome machinery.
Western blotting with antibodies against the HA-tag and the total protein mirrored the observed pattern.
(D) Chemical “rescue” of dTAG driven degradation. HAP1 cell lines expressing dTAGHA SLC2A3, 39A7, […], and MTCH2 were treated with 0.5 µM dTAG7 for 12 hours. A cell line expressing dTAG-HA SLC38A2 was treated with 0.5 µM dTAG7 for 18 hours. These cells were treated with MLN4924 (MLN, 1 µM), pomalidomide (poma., 10 µM), or bafilomycin A1 (bafi., 2.5 µM) to monitor the inhibition of degradation.
For immunoblotting, whole cell extracts were prepared using RIPA lysis buffer (25 mM Tris/HCl pH 7.6, 150 mM NaCl, 1% NP-40, 1% sodium deoxycholate, 0.1% SDS, EDTA-free protease inhibitor (Roche) and phosphatase inhibitors 2+3 (Sigma- Aldrich)). Cell extracts were incubated for 15 min on ice in 50 µL RIPA buffer. Lysates were cleared by centrifugation (20,000 g, 10 min, 4° C.). Protein extracts were quantified and normalized using the BCA assay (Thermo Scientific). Where indicated, cleared lysates where treated with the enzyme PNGase (NEB) to deglycosylate the proteins. Lämmli Sample Buffer 4x was added to protein extract samples without boiling. Cell lysates were run on SDS-polyacrylamide gel in tris-glycine running buffer and transferred to nitrocellulose membranes Amersham Protran 0.45 µm (GE Healthcare), according to standard methods. The membranes were incubated with the antibodies indicated below and visualized with horseradish peroxidase-conjugated secondary antibodies (described below) using the ECL Western blotting system (Thermo Scientific). The following antibodies were used: GAPDH (Santa Cruz, sc-365062), Actin (Cyoskeleton Inc., #AAN01), HA (Covance, cat #MMS-101R), HA (Cell Signaling, #3724), HA7-HRP (Sigma, H6533), HA (Roche, #11867423001), SLC9A1 (Santa Cruz, sc-136239), SLC2A1 (Cell Signaling, #12939), SLC38A1 (Cell Signaling, #36057). Secondary antibody for imaging goat anti-Rat IgG Alexa Fluor 488 (ThermoFisher, A11006). The following secondary antibodies were used for immunoblotting: goat anti-mouse HRP (115-035-003, Jackson ImmunoResearch) and goat anti-rabbit HRP (111-035-003, Jackson ImmunoResearch).
SLCs were ectopically expressed as fusions to a mutated FKBP domain, also known as the dTAG system. In brief, a dTAGed protein is amenable to degradation by specific chimeric degrader molecules (e.g. dTAG7/dTAG13) that simultaneously bind to the dTAG and the CRL4CRBN E3 ligase, inducing molecular proximity and ensuing degradation by the proteasome. Given that SLCs were expressed in all cellular compartments, the amenability of differentially located SLCs to targeted proteolysis was tested (FIG. 1A, upper graph). Each of the tested SLCs was stably expressed in HAP1 cells, and subcellular localization was assessed by immunofluorescence microscopy (FIG. 1B). In detail, SLCs located at the cell surface (SLC1A5, SLC38A1, SLC2A1, SLC2A3, SLC16A1, SLC4A4, SLC7A3), cell surface and vesicles (SLC38A2), lysosome (SLC38A9), Golgi (SLC35B2, SLC33A1), mitochondria (SLC25A26, SLC25A1, and MTCH2) and endoplasmic reticulum (SLC39A7, SLC30A9) were assayed. Cellular treatment with a specific degrader molecule (dTAG7 or dTAG13) led to identification of SLCs expressed at cell surface, endoplasmic reticulum and lysosome that were amenable to targeted degradation (FIGS. 1C, 5A). The dTAG could be placed on either N- or C-terminus of the SLC, if both face the cytoplasm (FIG. 5B), as exemplified by SLC2A3. […]

Cc1cc(-c2ccc(C(=O)NCCOCCOCCOCCOCCNc3cccc4c3C(=O)N(C3CCC(=O)NC3=O)C4=O)cc2N2CCC(c3[nH]cnc3C)CC2)ccc1F (stereo not drawn) [d9A1-2]
degradation of exogenous SLC9A1 [1]: most efficient degradation

CC[C@H](C(=O)N1CCCC[C@H]1C(=O)O[C@H](CCc1ccc(OC)c(OC)c1)c1ccccc1OCC(=O)NCCCCCCOc1cccc2c1C(=O)N(C1CCC(=O)NC1=O)C2=O)c1cc(OC)c(OC)c(OC)c1 (stereo partly drawn) [dTAG13]
time for which target degradation is maintained [2]: at least 72 h

CC[C@H](C(=O)N1CCCC[C@H]1C(=O)O[C@H](CCc1ccc(OC)c(OC)c1)c1ccccc1OCC(=O)NCCCOCCOCCOCCCNC(=O)COc1cccc2c1C(=O)N(C1CCC(=O)NC1=O)C2=O)c1cc(OC)c(OC)c(OC)c1 (stereo partly drawn) [dTAG7]
temporal control of targeted SLC degradation [2]: reversible degradation
